In publication PMC12281485, “High-Throughput Screening of Potent Drug-like Molecules Targeting 17β-HSD10 for the Treatment of Alzheimer’s Disease and Cancer” (ACS Chemical Biology, 2025):
Read-outs that look alike come from different tables or passages of the source.

Columns and labels:
17β-HSD10 [1] = molecular target: T1, 17β-HSD10 (Homo sapiens, UniProt Q99714); assay: 17β-HSD10 enzyme inhibition dose-response assay (acetoacetyl-CoA/NADH, absorbance 340 nm); format: biochemical
T1 construct: Recombinant 17β-HSD10 was expressed and purified as previously described in Aitken et al; made in house
T1 sequence (Q99714 1-261): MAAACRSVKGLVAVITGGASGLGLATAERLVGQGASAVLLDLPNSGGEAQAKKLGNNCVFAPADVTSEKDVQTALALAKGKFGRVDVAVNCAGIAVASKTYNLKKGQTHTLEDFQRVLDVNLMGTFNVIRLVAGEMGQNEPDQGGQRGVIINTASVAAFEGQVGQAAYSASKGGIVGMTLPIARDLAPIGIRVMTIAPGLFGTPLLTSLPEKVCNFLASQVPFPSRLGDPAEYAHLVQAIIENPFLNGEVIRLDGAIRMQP
Procedure: Recombinant 17β-HSD10 was expressed and purified as previously described in Aitken et al.
17β-HSD10 screening was carried out as described in Aitken et al. with the exception that experiments were also conducted in clear-bottom 1536-well low-volume microplates (Corning) with a final assay volume of 20 μL. For primary screening, an endpoint assay format was adopted, in which an Echo acoustic liquid dispenser (Labcyte) was used to transfer 20 nL of either DMSO control […] or test compounds (10 μM) to the assay plate. 10 μL of the 17β-HSD10 enzyme in an assay buffer (2.5 nM) was then added to the plates using the Preddator liquid handling robot (Redd and Whyte), and plates were incubated at RT for 15 min. 10 μL of the substrate mixture (100 μM acetoacetyl-CoA and 100 μM NADH) was added with the Preddator. To start the reaction, the plates were left to incubate for 35 min at RT before the absorbance at 340 nm was read on the EnVision plate reader (PerkinElmer). For the kinetic assay format and dose-response follow-up experiments, the same protocol was adopted, except that the absorbance at 340 nm was monitored constantly for 45 min from immediately after the reaction was started.

[2] = system: HEK293 cells overexpressing 17β-HSD10; assay: LDH cytotoxicity assay; format: cell-based, human; details: 50 μM compound, 24 h, n = 3 ± SD
Procedure: Cell cytotoxicity was assessed via the measurement of LDH leakage into the culture medium using a commercially available kit from Pierce (Thermo Scientific cat no. 88953). This was carried out in accordance with the kit guidelines, with the activity of LDH being calculated from the change in absorbance at […]. Human embryonic kidney (HEK293) cells overexpressing 17β-HSD10 were cultured in phenol-red free media (10% FBS, 1 mM sodium pyruvate, 100 units penicillin, 0.1 mg mL^–1 streptomycin, and 2 mM L-glutamine) and seeded at a density of 10,000 cells per well (100 μL, 96-well plates). […] Treated cells were then incubated at 37 °C and CO2 (5%) for 24 h before the LDH assay was performed as per the manufacturer’s instructions. Spontaneous control (water) and maximum control (lysis buffer) were used in accordance with the kit guide. Absorbance was measured at 490 and 680 nm using the SpectraMaxM2e spectrophotometer. The measured LDH activity was used to calculate %cytotoxicity using the following equation (eq ): %cytotoxicity=(compoundtreatedLDHactivity−spontaneousLDHactivity)/(maximumLDHactivity−spontaneousLDHactivity)×100 1

[3] = Alamar Blue cell viability assay; format: cell-based, human; details: human, HEK293 cells overexpressing 17β-HSD10, 50 μM compound, n = 3 ± SD, read-out: Alamar Blue % viability (50 μM dose)
Procedure: Cell viability was assessed via fluorescence change using the commercially available Alamar Blue from ThermoFisher. HEK293 cells overexpressing 17β-HSD10 were cultured in phenol-red free media (10% FBS, 1 mM sodium pyruvate, 100 units penicillin, 0.1 mg mL^–1 streptomycin, and 2 mM L-glutamine) and seeded at a density of 10,000 cells per well (100 μL, 96-well plates). […] Treated cells were then incubated at 37 °C and CO2 (5%) for 24 h before the assay was performed as per the manufacturer’s instructions. Fluorescence was measured at 530 nm excitation and 590 nm emission using the SpectraMaxM2e spectrophotometer.

17β-HSD10 [4] = molecular target: T1, 17β-HSD10; assay: (−)-CHANA fluorescence assay of cellular 17β-HSD10 activity; format: cell-based; details: Table 4, 17β-HSD10 overexpressing HEK293 cells, CHANA fluorescence assay; read-out: cellular 17β-HSD10 activity mean pEC50 (converted)
Procedure: (−)–CHANA ((−)-cyclohexenyl amino naphthalene alcohol) is a fluorogenic probe that can be used to detect 17β-HSD10 activity in living cells. HEK293 17β-HSD10 cells were seeded at a density of 10,000 cells per well (100 μL, 96-well black plates) in phenol-red free media (10% FBS, 1 mM sodium pyruvate, 100 units penicillin, 0.1 mg mL^–1 streptomycin, and 2 mM L-glutamine). […] The fluorogenic probe (−)–CHANA was then added to each well to give a final assay concentration of 20 μM. Fluorescence was immediately measured using the FLUOstar Optima microplate reader (excitation = 380 nm, emission = 520 nm, orbital averaging = 3 mm), and the initial reaction was monitored for 3–4 h. EC50 was calculated from the control-subtracted triplicates using nonlinear regression (four parameters) of GraphPad Prism 5 software. The Final EC50 and SEM values were obtained as a mean of at least three independent measurements.

[5] = Table 2, chemically modified cluster hit compounds, read-out: 17β-HSD10 pIC50 (converted)
[6] = Table 3, chemically modified singleton hit compound series, read-out: 17β-HSD10 pIC50 (converted)
[7] = Table 1, primary screening assay, resynthesized HTS hits, read-out: 17β-HSD10 pIC50 (converted)

CC(C)CN(C(=O)c1ccccc1F)c1cccc(NCc2c[nH]cn2)c1 [ESC1002631]
IC50 (17β-HSD10 [1]; [5]): 9330 nM

O=C(c1ccccc1F)N1CCCc2ccc(NCc3cnc[nH]3)cc21 [ESC1002081]
17β-HSD10 inhibitory activity (in words) (17β-HSD10 [1]): potency was abolished

Cc1ccsc1C(=O)N1CCC[C@H]1c1ccccc1-c1cnn(C)c1 [ESC1002424]
LipE (17β-HSD10 [1]): 2.1 | IC50 (17β-HSD10 [1]; [6]): 933 nM

COc1cccc(-c2ccccc2[C@@H]2CCCN2C(=O)c2[nH]ncc2Cl)c1 [ESC1002626]
IC50 (17β-HSD10 [1]; [6]): 457 nM

O=C(c1sccc1Cl)N1CCC[C@H]1c1ccccc1-c1cccc(O)c1 [ESC1002666]
IC50 (17β-HSD10 [1]; [6]): 58.9 nM | LDH % toxicity (50 μM dose) [2]: 4.49 ± 0.02% | viability at 24 h, 50 μM [3]: 79.3 ± 1.03% | EC50 (17β-HSD10 [4]): 138 nM

CC(C)CN(C(=O)c1ccncc1)c1cccc(N(C)Cc2cnc[nH]2)c1 [ESC1002034]
IC50 (17β-HSD10 [1]; [7]): 1580 nM

COc1cccc(-c2ccccc2C2CCCN2Cc2sccc2F)c1 (centres unmarked) [ESC1002695]
17β-HSD10 inhibitory activity (in words) (17β-HSD10 [1]): lost all activity

CC(C)CN(C(=O)c1ccccc1F)c1cccc(N(C)Cc2ccn[nH]2)c1 [ESC1002205]
IC50 (17β-HSD10 [1]; [5]): 891 nM | LDH % toxicity (50 μM dose) [2]: 5.84 ± 0.01% | viability at 24 h, 50 μM [3]: 82.52 ± 0.57% | EC50 (17β-HSD10 [4]): 3130 nM

COc1ccc(C(=O)N(CC(C)C)c2cccc(N(C)Cc3c[nH]cn3)c2)c(F)c1 [ESC1002576]
IC50 (17β-HSD10 [1]; [5]): 245 nM | LDH % toxicity (50 μM dose) [2]: 5.19 ± 0.01% | viability at 24 h, 50 μM [3]: 79.1 ± 0.99% | EC50 (17β-HSD10 [4]): 599 nM

CC(C)CN(C(=O)C1CCCCC1)c1cccc(N(C)Cc2cnc[nH]2)c1 [ESC1002166]
IC50 (17β-HSD10 [1]; [5]): 955 nM | LDH % toxicity (50 μM dose) [2]: 4.55 ± 0.02% | viability at 24 h, 50 μM [3]: 78.9 ± 0.9% | EC50 (17β-HSD10 [4]): 976 nM

COc1cccc(-c2ccccc2[C@H]2CCCN2C(=O)c2ccccc2C)c1 [ESC1002434]
17β-HSD10 inhibitory activity (in words) (17β-HSD10 [1]): not tolerated

COc1ccc(-c2ccccc2[C@@H]2CCCN2C(=O)c2sccc2C)cn1 [ESC1002161]
17β-HSD10 pIC50 (17β-HSD10 [1]; Supplementary B, Table S1 and text, enantiomers): < 4.7

COc1cccc(C(=O)N(CC(C)C)c2cccc(N(C)Cc3cnc[nH]3)c2)c1 [ESC1002038]
IC50 (17β-HSD10 [1]; [7]): 2000 nM

COc1cccc(-c2ccccc2C2CCCN2C(=O)c2sccc2C)c1 (centres unmarked) [ESC1002338]
IC50 (17β-HSD10 [1]; enzyme screening assay, read-out: IC50): 191 nM | LDH % toxicity (50 μM dose) [2]: 4.64 ± 0.01% | viability at 24 h, 50 μM [3]: 83 ± 1.25% | EC50 (17β-HSD10 [4]): 1150 nM

Cc1ccsc1C(=O)N1CCC[C@H]1c1ccccc1-c1cccnc1 [ESC1002090]
IC50 (17β-HSD10 [1]; [6]): 1150 nM

COc1cccc(-c2ccccc2C2CCCN2C(=O)c2sccc2Cl)c1 (racemic) [ESC1002432]
LDH % toxicity (50 μM dose) [2]: 4.24 ± 0.02% | viability at 24 h, 50 μM [3]: 80.61 ± 0.78%

CC(C)CN(C(=O)c1ccc(Cl)cc1F)c1cccc(N(C)Cc2cnc[nH]2)c1 [ESC1002042]
LipE (17β-HSD10 [1]; Table 1, lipophilic efficiency): 1.46 | IC50 (17β-HSD10 [1]; [5]): 316 nM

COc1ccc(-c2ccccc2[C@@H]2CCCN2C(=O)c2sccc2C)cc1 [ESC1002089]
IC50 (17β-HSD10 [1]; [6]): 331 nM | fold improvement in activity/potency over hit ESC1002082 (17β-HSD10 [1]; relative to ESC1002082): ~3 fold | LDH % toxicity (50 μM dose) [2]: 5.40 ± 0.05% | viability at 24 h, 50 μM [3]: 82 ± 2.23% | EC50 (17β-HSD10 [4]): 1790 nM

O=C(c1sccc1Cl)N1CCCC1c1ccccc1-c1cc(O)cc(F)c1 (racemic) [ESC1002776]
IC50 (17β-HSD10 [1]; [6]): 40.7 nM | LDH % toxicity (50 μM dose) [2]: 20.00 ± 0.11% | viability at 24 h, 50 μM [3]: 65.6 ± 1.67% | EC50 (17β-HSD10 [4]): 228 nM

COc1cccc(-c2ccccc2C2CCCN2C(=O)c2sccc2Cl)c1 (centres unmarked) [ESC1002606]
LDH % toxicity (50 μM dose) [2]: 5.09 ± 0.02% | viability at 24 h, 50 μM [3]: 78 ± 1.09%

COc1ccc(-c2ccccc2C2CCCN2C(=O)c2sccc2C)cc1 (centres unmarked) [ESC1002332]
IC50 (17β-HSD10 [1]; [5]): 166 nM | LDH % toxicity (50 μM dose) [2]: 3.52 ± 0.01% | viability at 24 h, 50 μM [3]: 87.7 ± 1.67% | EC50 (17β-HSD10 [4]): 7220 nM

Cc1ccc(C(=O)N(CC(C)C)c2cccc(N(C)Cc3cnc[nH]3)c2)cc1 [ESC1002032]
IC50 (17β-HSD10 [1]; [5]): 251 nM

O=C(c1sccc1Cl)N1CCCC1c1ccccc1-c1ccc(F)c(O)c1 (centres unmarked) [ESC1002775]
IC50 (17β-HSD10 [1]; [6]): 49 nM | LDH % toxicity (50 μM dose) [2]: 2.54 ± 0.004% | viability at 24 h, 50 μM [3]: 81.53 ± 0.56% | EC50 (17β-HSD10 [4]): 449 nM

O=C(c1sccc1Cl)N1CCCC1c1ccccc1-c1cc(O)cc(F)c1 (centres unmarked) [ESC1002801]
IC50 (17β-HSD10 [1]; [6]): 51.3 nM | LDH % toxicity (50 μM dose) [2]: 5.50 ± 0.01% | viability at 24 h, 50 μM [3]: 82.55 ± 0.62% | EC50 (17β-HSD10 [4]): 50 nM
